From US20060165630A1, “Use of amide or ester of sugar and of fatty acid, for treating and/or preventing dry skin” (priority 2002, published 2006)

What was measured:
[1] = system: human sebocytes immortalized in culture, derived from the SZ95 line; assay: Quantity of lipids produced by sebocytes (Nile Red fluorescence); assay type: cell-based; settings: 100 μM, 2 days of treatment, total lipids, SZ95 sebocytes at confluence
Description: The test compounds were evaluated on a model of human sebocytes immortalized in culture, derived from the SZ95 line described in Zouboulis, C. C. et al., Establishment and Characterization of an Immortalized Human Sebaceous Gland Cell Line, J. Invest. Dermatol., 113, 1011-1020 (1999).
The test consists of measuring the quantity of lipids produced by the sebocytes of the cell line (at confluence), with or without active agents present, diluted in DMSO, in such a way that the final amount of DMSO in the basal medium is 0.1%. After 2 days of treatment, the adhering cells are treated with Nile Red (1 μg/ml). The lipids content is then quantified by measuring the fluorescence of the stain (two excitation/emission pairs: 485-540 nm for neutral lipids and 540-620 nm for non-neutral lipids). The results are given for total lipids (combining both measurements).
The test is carried out in decaplicate (assayed products and control) in a 96-well plate and renewed 3 times.

[2] = Stability in solution, hydrolysis of the esters by HPLC; assay type: physicochemical; settings: hydrolysis of glucopyranose linoleate; 0.1 wt. % in ethanol/isopropanol/water (64/16/20 by volume), 45° C., 2 months
Description: The stability of the compounds according to the invention was evaluated (measurement of hydrolysis of the esters).
Solutions were prepared at 0.1 wt. % of the compounds in ethanol/isopropanol/water mixture (64/16/20 by volume). These solutions were left in a thermostat at 45° C., for 2 months.
Then the percentage hydrolysis of glucopyranose linoleate was determined by HPLC.

[3] = system: SZ 95 sebocytes; assay: Cytotoxicity on sebocytes, production of LDH in the basal medium; assay type: cell-based; settings: for Variation, LDH/control: 100 μM
Description: The tolerance of the glucose ester at 6 of linoleic acid was determined by measuring the cytotoxicity of the product on SZ 95 sebocytes, with linoleic acid alone as control.
The test conditions are identical to those examined in example 1. Cytotoxicity is measured by the production of LDH in the basal medium, according to the method described in Thomas J P et al.; Lethal damage to endothelial cells by oxidized low density lipoprotein: role of selenoperoxidases in cytoprotection against lipid hydroperoxide and iron mediated reactions. Journal of lipid research 34: 479-490. 1993.

[4] = Peroxidizability in the air, proportion of intact molecules by HPLC; assay type: physicochemical; settings: storage for two months, at room temperature (about 20 to 25° C.), HPLC with UV detection (210 nm)
Description: The purpose of this study is to evaluate the peroxidizability of various molecules or mixtures of molecules by carrying out various tests. These tests consist of measuring the proportion of molecules still intact after storage for two months, in air, at room temperature (about 20 to 25° C.). The loss of the starting product is monitored by HPLC with UV detection (210 nm).

| SMILES | Variation, lipid/CONTROL [1] | % hydrolysis [2] [%] | intact molecules [4] | also measured |
| --- | --- | --- | --- | --- |
| CCCCCC=CCC=CCCCCCCCC(=O)NC1C(O)OC(CO)C(O)C1O (stereo not shown) | +40% |  |  |  |
| CCCCCC=CCC=CCCCCCCCC(=O)O[C@H]1[C@H](O)[C@@H](CO)OC(O)[C@@H]1O (stereo partly drawn) [3-O-octadeca-9,12-dienoyl-D-glucopyranose] |  | 30 |  |  |
| CCCCCC=CCC=CCCCCCCCC(=O)OC[C@H]1OC(O)[C@H](O)[C@@H](O)[C@@H]1O (stereo partly drawn) [6-O-octadeca-9,12-dienoyl-D-glucopyranose] |  | 7 | 30% | Variation, LDH/control ([3]; SZ 95 sebocytes, LDH in the basal medium): Not significant; cytotoxicity with respect to sebocytes (in words) ([3]; SZ 95 sebocytes): No cytotoxicity was found |
| C[C@]12CC[C@H](O)CC1=CC[C@@H]1[C@@H]2CC[C@]2(C)C(=O)CC[C@@H]12 [DHEA, dehydroepiandrosterone, reference compound] | +80% |  |  |  |
| CCCCCC=CCC=CCCCCCCCC(=O)O [Linoleic acid, octadeca-9,12-dienoic acid, reference compound] |  |  | no longer contain intact molecules | Variation, LDH/control ([3]; human): +20% |
| CCCCC/C=C\C/C=C\CCCCCCCC(=O)OC [methyl linoleate] |  |  | no longer contain intact molecules |  |
